{"source": "the supplement of paper PMC10307832", "test_in_all_cases": "relative viability (nuclei count vs DMSO), 5 days (fraction); higher = more cells survive", "key": {"HARA": {"tested_on": "HARA", "procedure,_shortened": "(§1)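 The day after seeding in 1536-well plates, lung cancer cell lines were treated by pin tool with a single drug, or with a fixed anchor-drug dose together with five library-drug doses (not always all listed) in √10 steps. After 5 days, a combined fix-and-stain solution (final 0.05% Triton X-100, 1% formaldehyde, 1 ug/ml Hoechst) was added. Nuclei counted on 4× images gave relative viability as treated counts over vehicle counts, reported as the median of duplicate plates.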"}, "NCI-H441": {"tested_on": "NCI-H441", "procedure,_shortened": "as §1"}, "NCI-H2126": {"tested_on": "NCI-H2126", "procedure,_shortened": "as §1"}, "NCI-H2023": {"tested_on": "NCI-H2023", "procedure,_shortened": "as §1"}, "HCC-15": {"tested_on": "HCC-15", "procedure,_shortened": "as §1"}, "A-427": {"tested_on": "A-427", "procedure,_shortened": "as §1"}, "SW 1573": {"tested_on": "SW 1573", "procedure,_shortened": "as §1"}, "LCLC-97TM1": {"tested_on": "LCLC-97TM1", "procedure,_shortened": "as §1"}, "NCI-H1734": {"tested_on": "NCI-H1734", "procedure,_shortened": "as §1"}, "LOU-NH91": {"tested_on": "LOU-NH91", "procedure,_shortened": "as §1"}, "COR-L23": {"tested_on": "COR-L23", "procedure,_shortened": "as §1"}, "RERF-LC-KJ": {"tested_on": "RERF-LC-KJ", "procedure,_shortened": "as §1"}, "NCI-H460": {"tested_on": "NCI-H460", "procedure,_shortened": "as §1"}, "NCI-H650": {"tested_on": "NCI-H650", "procedure,_shortened": "as §1"}, "NCI-H1650": {"tested_on": "NCI-H1650", "procedure,_shortened": "as §1"}, "NCI-H2009": {"tested_on": "NCI-H2009", "procedure,_shortened": "as §1"}, "LCLC-103H": {"tested_on": "LCLC-103H", "procedure,_shortened": "as §1"}, "201T": {"tested_on": "201T", "procedure,_shortened": "as §1"}, "HCC-44": {"tested_on": "HCC-44", "procedure,_shortened": "as §1"}, "ChaGo-K-1": {"tested_on": "ChaGo-K-1", "procedure,_shortened": "as §1"}, "NCI-H1993": {"tested_on": "NCI-H1993", "procedure,_shortened": "as §1"}}, "data": [{"smiles": "CCCCCCCCCCCC1=C(O)C(=O)C=C(O)C1=O", "note": "[Embelin] + CCNC(=O)c1noc(-c2cc(C(C)C)c(O)cc2O)c1-c1ccc(CN2CCOCC2)cc1 [Luminespib] (partner 0.01 µM)", "values": [{"measurement": "relative viability", "setting": "HARA; first compound 0.08 µM", "value": 0.832}, {"measurement": "relative viability", "setting": "HARA; first compound 0.8 µM", "value": 0.919}, {"measurement": "relative viability", "setting": "HARA; first compound 2.53 µM", "value": 0.987}, {"measurement": "relative viability", "setting": "HARA; first compound 8 µM", "value": 0.821}, {"measurement": "relative viability", "setting": "NCI-H441; first compound 0.08 µM", "value": 0.32}, {"measurement": "relative viability", "setting": "NCI-H441; first compound 0.8 µM", "value": 0.294}, {"measurement": "relative viability", "setting": "NCI-H441; first compound 2.53 µM", "value": 0.332}, {"measurement": "relative viability", "setting": "NCI-H441; first compound 8 µM", "value": 0.33}, {"measurement": "relative viability", "setting": "NCI-H2126; first compound 0.08 µM", "value": 0.838}, {"measurement": "relative viability", "setting": "NCI-H2126; first compound 0.8 µM", "value": 1.01}, {"measurement": "relative viability", "setting": "NCI-H2126; first compound 2.53 µM", "value": 0.965}, {"measurement": "relative viability", "setting": "NCI-H2126; first compound 8 µM", "value": 0.927}, {"measurement": "relative viability", "setting": "NCI-H2023; first compound 0.08 µM", "value": 0.813}, {"measurement": "relative viability", "setting": "NCI-H2023; first compound 0.8 µM", "value": 0.914}, {"measurement": "relative viability", "setting": "NCI-H2023; first compound 2.53 µM", "value": 0.773}, {"measurement": "relative viability", "setting": "NCI-H2023; first compound 8 µM", "value": 0.372}, {"measurement": "relative viability", "setting": "HCC-15; first compound 0.08 µM", "value": 0.243}, {"measurement": "relative viability", "setting": "HCC-15; first compound 0.8 µM", "value": 0.299}, {"measurement": "relative viability", "setting": "HCC-15; first compound 2.53 µM", "value": 0.3}, {"measurement": "relative viability", "setting": "HCC-15; first compound 8 µM", "value": 0.302}, {"measurement": "relative viability", "setting": "A-427; first compound 0.08 µM", "value": 0.976}, {"measurement": "relative viability", "setting": "A-427; first compound 0.8 µM", "value": 0.998}, {"measurement": "relative viability", "setting": "A-427; first compound 2.53 µM", "value": 0.966}, {"measurement": "relative viability", "setting": "A-427; first compound 8 µM", "value": 1.18}, {"measurement": "relative viability", "setting": "SW 1573; first compound 0.08 µM", "value": 0.256}, {"measurement": "relative viability", "setting": "SW 1573; first compound 0.8 µM", "value": 0.341}, {"measurement": "relative viability", "setting": "SW 1573; first compound 2.53 µM", "value": 0.252}, {"measurement": "relative viability", "setting": "SW 1573; first compound 8 µM", "value": 0.216}, {"measurement": "relative viability", "setting": "LCLC-97TM1; first compound 0.08 µM", "value": 0.78}, {"measurement": "relative viability", "setting": "LCLC-97TM1; first compound 0.8 µM", "value": 0.899}, {"measurement": "relative viability", "setting": "LCLC-97TM1; first compound 2.53 µM", "value": 0.907}, {"measurement": "relative viability", "setting": "LCLC-97TM1; first compound 8 µM", "value": 0.872}, {"measurement": "relative viability", "setting": "NCI-H1734; first compound 0.08 µM", "value": 0.201}, {"measurement": "relative viability", "setting": "NCI-H1734; first compound 0.8 µM", "value": 0.208}, {"measurement": "relative viability", "setting": "NCI-H1734; first compound 2.53 µM", "value": 0.208}, {"measurement": "relative viability", "setting": "NCI-H1734; first compound 8 µM", "value": 0.197}, {"measurement": "relative viability", "setting": "LOU-NH91; first compound 0.08 µM", "value": 0.429}, {"measurement": "relative viability", "setting": "LOU-NH91; first compound 0.8 µM", "value": 0.369}, {"measurement": "relative viability", "setting": "LOU-NH91; first compound 2.53 µM", "value": 0.36}, {"measurement": "relative viability", "setting": "LOU-NH91; first compound 8 µM", "value": 0.299}, {"measurement": "relative viability", "setting": "COR-L23; first compound 0.08 µM", "value": 0.773}, {"measurement": "relative viability", "setting": "COR-L23; first compound 0.8 µM", "value": 0.73}, {"measurement": "relative viability", "setting": "COR-L23; first compound 2.53 µM", "value": 0.911}, {"measurement": "relative viability", "setting": "COR-L23; first compound 8 µM", "value": 0.763}, {"measurement": "relative viability", "setting": "RERF-LC-KJ; first compound 0.08 µM", "value": 1.05}, {"measurement": "relative viability", "setting": "RERF-LC-KJ; first compound 0.8 µM", "value": 1.13}, {"measurement": "relative viability", "setting": "RERF-LC-KJ; first compound 2.53 µM", "value": 1.51}, {"measurement": "relative viability", "setting": "RERF-LC-KJ; first compound 8 µM", "value": 0.55}, {"measurement": "relative viability", "setting": "NCI-H460; first compound 0.08 µM", "value": 0.0322}, {"measurement": "relative viability", "setting": "NCI-H460; first compound 0.8 µM", "value": 0.0396}, {"measurement": "relative viability", "setting": "NCI-H460; first compound 2.53 µM", "value": 0.0367}, {"measurement": "relative viability", "setting": "NCI-H460; first compound 8 µM", "value": 0.029}, {"measurement": "relative viability", "setting": "NCI-H650; first compound 0.08 µM", "value": 0.712}, {"measurement": "relative viability", "setting": "NCI-H650; first compound 0.8 µM", "value": 0.986}, {"measurement": "relative viability", "setting": "NCI-H650; first compound 2.53 µM", "value": 0.888}, {"measurement": "relative viability", "setting": "NCI-H650; first compound 8 µM", "value": 0.637}, {"measurement": "relative viability", "setting": "NCI-H1650; first compound 0.08 µM", "value": 0.16}, {"measurement": "relative viability", "setting": "NCI-H1650; first compound 0.8 µM", "value": 0.196}, {"measurement": "relative viability", "setting": "NCI-H1650; first compound 2.53 µM", "value": 0.212}, {"measurement": "relative viability", "setting": "NCI-H1650; first compound 8 µM", "value": 0.185}, {"measurement": "relative viability", "setting": "NCI-H2009; first compound 0.08 µM", "value": 1.05}, {"measurement": "relative viability", "setting": "NCI-H2009; first compound 0.8 µM", "value": 1.07}, {"measurement": "relative viability", "setting": "NCI-H2009; first compound 2.53 µM", "value": 1.08}, {"measurement": "relative viability", "setting": "NCI-H2009; first compound 8 µM", "value": 1.01}, {"measurement": "relative viability", "setting": "LCLC-103H; first compound 0.08 µM", "value": 1}, {"measurement": "relative viability", "setting": "LCLC-103H; first compound 0.8 µM", "value": 1.03}, {"measurement": "relative viability", "setting": "LCLC-103H; first compound 2.53 µM", "value": 1.14}, {"measurement": "relative viability", "setting": "LCLC-103H; first compound 8 µM", "value": 0.926}, {"measurement": "relative viability", "setting": "201T; first compound 0.08 µM", "value": 0.987}, {"measurement": "relative viability", "setting": "201T; first compound 0.8 µM", "value": 1.08}, {"measurement": "relative viability", "setting": "201T; first compound 2.53 µM", "value": 1.06}, {"measurement": "relative viability", "setting": "201T; first compound 8 µM", "value": 1.09}, {"measurement": "relative viability", "setting": "HCC-44; first compound 0.08 µM", "value": 1.04}, {"measurement": "relative viability", "setting": "HCC-44; first compound 0.8 µM", "value": 1.1}, {"measurement": "relative viability", "setting": "HCC-44; first compound 2.53 µM", "value": 1.37}, {"measurement": "relative viability", "setting": "HCC-44; first compound 8 µM", "value": 0.852}, {"measurement": "relative viability", "setting": "ChaGo-K-1; first compound 0.08 µM", "value": 0.529}, {"measurement": "relative viability", "setting": "ChaGo-K-1; first compound 0.8 µM", "value": 0.755}, {"measurement": "relative viability", "setting": "ChaGo-K-1; first compound 2.53 µM", "value": 0.776}, {"measurement": "relative viability", "setting": "ChaGo-K-1; first compound 8 µM", "value": 0.587}, {"measurement": "relative viability", "setting": "NCI-H1993; first compound 0.08 µM", "value": 0.848}, {"measurement": "relative viability", "setting": "NCI-H1993; first compound 0.8 µM", "value": 0.763}, {"measurement": "relative viability", "setting": "NCI-H1993; first compound 2.53 µM", "value": 1.04}, {"measurement": "relative viability", "setting": "NCI-H1993; first compound 8 µM", "value": 0.963}]}]}
